The values that follow come from patent US5985603A, “P2x receptor DNA and protein sequence” (Glaxo Group Limited, priority 1994, dated 1999).

Assay [1] concerns the target T1, rat superior cervical ganglion P2X receptor (clone 3) (Rattus norvegicus, UniProt P51577).
T1 construct: The insert appeared to be a full length cDNA; expressed in transfected cells; host or cells: HEK293 cells transfected with pcDNA3 construct p464 (also oocytes injected with in vitro transcribed RNA)
T1 sequence (P51577 1-388): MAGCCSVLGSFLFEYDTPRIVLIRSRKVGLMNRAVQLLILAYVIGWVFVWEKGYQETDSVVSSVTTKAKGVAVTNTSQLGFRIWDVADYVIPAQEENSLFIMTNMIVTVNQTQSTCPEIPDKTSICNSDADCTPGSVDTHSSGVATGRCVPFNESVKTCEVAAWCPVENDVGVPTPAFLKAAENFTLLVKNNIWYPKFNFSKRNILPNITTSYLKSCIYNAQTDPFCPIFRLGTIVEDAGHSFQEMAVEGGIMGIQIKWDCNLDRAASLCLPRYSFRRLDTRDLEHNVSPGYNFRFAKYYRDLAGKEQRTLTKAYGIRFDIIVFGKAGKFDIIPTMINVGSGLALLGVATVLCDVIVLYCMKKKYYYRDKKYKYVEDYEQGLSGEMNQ
The experiment in a line: functional properties of cloned P2X receptors (electrical recordings): clone 3. In kind it is cell-based.

For another assay, the target named is T2, PC12 P2X receptor (Rattus norvegicus, UniProt P49653).
T2 construct: host or cells: HEK293 cells (oocytes are also named for the functional characterisation of clone 3)
T2 sequence (P49653 1-472): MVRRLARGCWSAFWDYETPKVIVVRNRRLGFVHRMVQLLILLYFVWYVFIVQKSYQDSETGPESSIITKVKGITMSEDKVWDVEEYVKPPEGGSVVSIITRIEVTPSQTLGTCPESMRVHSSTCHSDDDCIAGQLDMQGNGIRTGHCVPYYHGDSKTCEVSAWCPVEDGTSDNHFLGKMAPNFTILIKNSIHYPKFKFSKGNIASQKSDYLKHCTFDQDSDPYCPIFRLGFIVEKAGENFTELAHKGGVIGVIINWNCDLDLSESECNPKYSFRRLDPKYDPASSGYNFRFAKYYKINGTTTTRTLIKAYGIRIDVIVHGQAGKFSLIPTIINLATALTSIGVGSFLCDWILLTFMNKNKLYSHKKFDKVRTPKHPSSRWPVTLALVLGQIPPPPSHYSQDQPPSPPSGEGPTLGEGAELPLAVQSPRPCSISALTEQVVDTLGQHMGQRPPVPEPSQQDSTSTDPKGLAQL
The experiment in a line: functional properties of cloned P2X receptors (electrical recordings): PC12. In kind it is cell-based. The procedure:
HEK 293 cells were transfected by the lipofectin method (Felgner et al., Proc. Nat'l. Acad. Sci. USA 84 7413-7417 (1987)) with P2X -plasmid. DNA concentration used was 1 mg/2 ml medium placed into a 35 mm petri dish containing four 11 mm diameter coverslips on which HEK cells were placed at 10,000 cells per coverslip. […] Currents were recorded from HEK 293 cells using whole-cell recording methods and the AXOPATCH™ 200 amplifier (Axon Instruments); patch pipettes (5 M.OMEGA.) contained (mM) Cs or K aspartate 140, NaCl 5, EGTA 11, HEPES 5. The external solution was (mM) NaCl 150, KCl2, CaCl2 2, MgCl2 1, HEPES 5 and glucose 11; the pH and osmolarity of both solutions were maintained at 7.3 and 305 mosmol/l respectively. All recordings performed at room temperature. Data acquisition and analysis were performed using pCLAMP™ and AXOGRAPH™ software (Axon Instruments). […] The pH and osmolarity of the solutions were 7.4 and 295 mosmol/l respectively. For single channel measurements, a […]™ 500 amplifier and outside-out recording methods were used (Adelman et al., Neuron 9 209-216 (1992)). Wax-coated patch pipettes (5-10 M.OMEGA.) contained (mM) K-gluconate 115, HEPES 5, BAPTA 5 and MgCl2 0.5, external solution was 96 mM NaCl, 2 mM KCl, 1.8 mM CaCl2, 1 mM MgCl2, 5 mM Hepes pH 7.6, and 5 mM sodium pyruvate.
The functional characterisation of the clone illustrated in FIG. 2 (referred to herein as clone 3) was carried out by electrical recordings from transfected HEK293 cells and from oocytes injected with the in vitro transcribed RNA, as described in Example 4 for the rat vas deferens P2X receptor. Table A summarizes the main properties of clone 3 as compared to those of rat vas/human bladder cDNA clone, and the PC12 cDNA clone (provided by David Julius and Tony Brake of the University of California at San Francisco).

As for `Nc1ncnc2c1ncn2[C@@H]1O[C@H](COP(=O)([O-])OP(=O)([O-])OP(=O)([O-])[O-])[C@@H](O)[C@H]1O.[Mg+2].[Mg+2]` [ATP, adenosine 5'-triphosphate magnesium salt], the EC50 was 11 µM in assay [1] and 8 µM at PC12 P2X receptor. Moreover, the “decline of currents (desensitisation) during application” value in assay [1] (applications of several seconds) is “little or no decline during applications of several seconds”.

As usually defined, the EC50 is the concentration that produces a half-maximal response. The low end stands for an effect from little substance, the high end for a need for much substance.
